Drawing on patent publication US9718828B2 (MERCK SHARP & DOHME CORP., priority 2011, dated 2017), this text covers IC50 for 18 compounds.

hBTK (full-length BTK, 6HIS-tag cleaved), sequence (Q06187 whole entry): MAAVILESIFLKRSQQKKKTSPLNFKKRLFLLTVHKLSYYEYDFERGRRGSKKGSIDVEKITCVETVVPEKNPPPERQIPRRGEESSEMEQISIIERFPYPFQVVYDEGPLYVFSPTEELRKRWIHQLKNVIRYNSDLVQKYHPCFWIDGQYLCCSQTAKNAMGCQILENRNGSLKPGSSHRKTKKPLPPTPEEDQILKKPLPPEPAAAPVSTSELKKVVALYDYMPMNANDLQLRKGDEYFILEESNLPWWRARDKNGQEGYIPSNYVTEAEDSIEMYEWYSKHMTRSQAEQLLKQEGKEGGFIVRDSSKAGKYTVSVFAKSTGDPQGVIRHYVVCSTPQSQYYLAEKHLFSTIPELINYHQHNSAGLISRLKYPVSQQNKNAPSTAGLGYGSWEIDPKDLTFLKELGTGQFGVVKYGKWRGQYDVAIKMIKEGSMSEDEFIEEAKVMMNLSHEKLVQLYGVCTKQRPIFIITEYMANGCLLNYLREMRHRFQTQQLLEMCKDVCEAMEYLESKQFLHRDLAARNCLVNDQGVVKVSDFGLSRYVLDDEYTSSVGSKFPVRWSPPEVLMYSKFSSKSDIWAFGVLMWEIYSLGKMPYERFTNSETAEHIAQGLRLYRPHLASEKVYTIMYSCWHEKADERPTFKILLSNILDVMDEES

The target in one experiment is hBTK (full-length BTK, 6HIS-tag cleaved) (Homo sapiens (Human), UniProt Q06187). Nature of the experiment: BTK enzymatic activity, IMAP-FP assay (Assay Method B). It is filed as biochemical. As to conditions: IMAP-FP, 1.05 nM hBTK, 5 μM ATP; class 100-1000 is given as ≧100 nM-<1 μM; read-out: IC50 Btk activity values - Assay Method B. As to the method:
BTK enzymatic activity was determined in an IMAP-FP assay (Immobilized Metal ion Affinity-based fluorescence Polarization; Molecular Devices). […] Phosphorylation reactions were allowed to proceed for 120 minutes and were immediately quenched by the addition of 40 μL IMAP detection beads resuspended in IMAP progressive binding buffer (beads were diluted 1:600 in 75% and 25% progressive binding buffer A and B, respectively; Molecular Devices). Plates were read on Packard microplate reader after 60 minutes binding equilibration using Fluorescence Polarization protocol.
In general, IC50 refers to the concentration that gives 50% inhibition. Take `Cn1cc(CN2CCS(=O)(=O)C(c3nc(-c4ccc(C(=O)Nc5cc(C(F)(F)F)ccn5)cc4)c4c(N)nccn34)C2)cn1` (stereo not drawn) [Example 569, 4-(8-amino-3-{4-[(1-methyl-1H-pyrazol-4-yl)methyl]-1,1-dioxidothiomorpholin-2-yl}imidazo[1,5-a]pyrazin-1-yl)-N-[4-(trifluoromethyl)pyridin-2-yl]benzamide]: the IC50 lay in the range of 100 to 1000 nM.
For the compound `C[C@H]1CC[C@@H](c2nc(-c3ccc(C(=O)Nc4ccccn4)cc3)c3c(N)nccn23)CN1C(=O)C1CC1` (stereo in doubt) [Example 394, 4-{8-amino-3-[(3R,6S)-1-(cyclopropylcarbonyl)-6-methylpiperidin-3-yl]imidazo[1,5-a]pyrazin-1-yl}-N-pyridin-2-ylbenzamide], the IC50 is < 10 nM.
As to `Nc1nccn2c([C@H]3CN(C(=O)C4(N)CCC4)CCO3)nc(-c3ccc(C(=O)Nc4cc(C(F)(F)F)ccn4)cc3)c12` [Example 499, 4-(8-amino-3-{(2R)-4-[(1-aminocyclobutyl)carbonyl]morpholin-2-yl}imidazo[1,5-a]pyrazin-1-yl)-N-[4-(trifluoromethyl)pyridin-2-yl]benzamide], the 50% inhibitory concentration (IC50) was 10 to 100 nM.
On to `Cc1cc(-c2nc([C@@H]3CCCN(C(=O)C4(C)COC4)C3)n3ccnc(N)c23)ccc1C(=O)Nc1cc(C(F)(F)F)ccn1` [Example 474, 4-(8-amino-3-{(3R)-1-[(3-methyloxetan-3-yl)carbonyl]piperidin-3-yl}imidazo[1,5-a]pyrazin-1-yl)-2-methyl-N-[4-(trifluoromethyl)pyridin-2-yl]benzamide], for which the concentration for half-maximal inhibition (IC50) was in the range of 10 to 100 nM.
Take `Nc1ncc(Br)n2c([C@@H]3CCCN(C(=O)C4CC4)C3)nc(-c3ccc(C(=O)Nc4cc(C(F)(F)F)ccn4)cc3)c12` [Example 577, (R)-4-(8-amino-5-bromo-3-(1-(cyclopropanecarbonyl)piperidin-3-yl)imidazo[1,5-a]pyrazin-1-yl)-N-(4-(trifluoromethyl)pyridin-2-yl)benzamide]: the IC50 was < 10 nM.
As to `Cn1cc(CN2CCO[C@@H](c3nc(-c4ccc(C(=O)Nc5cc(C6CC6)ccn5)cc4)c4c(N)nccn34)C2)cn1` [Example 498, 4-(8-amino-3-{(2R)-4-[(1-methyl-1H-pyrazol-4-yl)methyl]morpholin-2-yl}imidazo[1,5-a]pyrazin-1-yl)-N-(4-cyclopropylpyridin-2-yl)benzamide], the IC50 fell in the range of 10 to 100 nM.
On to `COCC1(C(=O)N2CCO[C@@H](c3nc(-c4ccc(C(=O)Nc5cc(C(F)(F)F)ccn5)cc4)c4c(N)nccn34)C2)CCC1` [Example 500, 4-{8-amino-3-[(2R)-4-{[1-(methoxymethyl)cyclobutyl]carbonyl}morpholin-2-yl]imidazo[1,5-a]pyrazin-1-yl}-N-[4-(trifluoromethyl)pyridin-2-yl]benzamide], for which the IC50 was in the range of 10 to 100 nM.
The same measure, in the same setting: the value for `CN1CCO[C@@H](c2nc(-c3ccc(C(=O)Nc4cc(C(F)(F)F)ccn4)cc3)c3c(N)nccn23)C1` [Example 497, 4-{8-amino-3-[(2R)-4-methylmorpholin-2-yl]imidazo[1,5-a]pyrazin-1-yl}-N-[4-(trifluoromethyl)pyridin-2-yl]benzamide] was 10 to 100 nM; that for `COCCC(=O)N1CCC[C@@H](c2nc(-c3ccc(C(=O)Nc4ccccn4)cc3O)c3c(N)nccn23)C1` [Example 475, 4-{8-amino-3-[(3R)-1-(3-methoxypropanoyl)piperidin-3-yl]imidazo[1,5-a]pyrazin-1-yl}-3-hydroxy-N-pyridin-2-ylbenzamide] was 10 to 100 nM.
As to `C[C@H]1CC[C@H](c2nc(-c3ccc(C(=O)Nc4cc(C(F)(F)F)ccn4)cc3)c3c(N)nccn23)CN1C(=O)C1(C)COC1` [Example 407, 4-(8-amino-3-{(3S,6S)-6-methyl-1-[(3-methyloxetan-3-yl)carbonyl]piperidin-3-yl}imidazo[1,5-a]pyrazin-1-yl)-N-[4-(trifluoromethyl)pyridin-2-yl]benzamide], the IC50 is 10 to 100 nM.
The same measure, in the same setting: the value for `COc1ccnc(NC(=O)c2ccc(-c3nc([C@@H]4CC[C@H](C)N(C(=O)C5(C)COC5)C4)n4ccnc(N)c34)cc2)c1` [Example 403, 4-(8-amino-3-{(3R,6S)-6-methyl-1-[(3-methyloxetan-3-yl)carbonyl]piperidin-3-yl}imidazo[1,5-a]pyrazin-1-yl)-N-(4-methoxypyridin-2-yl)benzamide] was < 10 nM.
In the case of `CN1CCS(=O)(=O)C(c2nc(-c3ccc(C(=O)Nc4cc(C(F)(F)F)ccn4)cc3)c3c(N)nccn23)C1` (stereo not drawn) [Example 570, 4-[8-amino-3-(4-methyl-1,1-dioxidothiomorpholin-2-yl)imidazo[1,5-a]pyrazin-1-yl]-N-[4-(trifluoromethyl)pyridin-2-yl]benzamide], the IC50 lay in the range of 100 to 1000 nM.
As for `CN1CCN(C)[C@@H](c2nc(-c3ccc(C(=O)Nc4cc(C(F)(F)F)ccn4)cc3)c3c(N)nccn23)C1` [Example 565, 4-{8-amino-3-[(2R)-1,4-dimethylpiperazin-2-yl]imidazo[1,5-a]pyrazin-1-yl}-N-[4-(trifluoromethyl)pyridin-2-yl]benzamide], the concentration for half-maximal inhibition (IC50) lay in the range of 100 to 1000 nM.
For `C[C@@H]1CC[C@@H](c2nc(-c3ccc(C(=O)Nc4cc(C(F)(F)F)ccn4)cc3)c3c(N)nccn23)CN1C(=O)C1(C)COC1` [Example 405, 4-(8-amino-3-{(3R,6R)-6-methyl-1-[(3-methyloxetan-3-yl)carbonyl]piperidin-3-yl}imidazo[1,5-a]pyrazin-1-yl)-N-[4-(trifluoromethyl)pyridin-2-yl]benzamide], the IC50 lay within 100 to 1000 nM.
On to `C[C@H]1[C@H](c2nc(-c3ccc(C(=O)Nc4cc(C(F)(F)F)ccn4)cc3)c3c(N)nccn23)CCCN1C(=O)C1(C)COC1` [Example 380, 4-(8-amino-3-{(2S,3R)-2-methyl-1-[(3-methyloxetan-3-yl)carbonyl]piperidin-3-yl}imidazo[1,5-a]pyrazin-1-yl)-N-[4-(trifluoromethyl)pyridin-2-yl]benzamide], for which the IC50 lay within 10 to 100 nM.
The same measure, in the same setting: the figure for `Cc1ccnc(NC(=O)c2ccc(-c3nc([C@@H]4CC[C@H](C)N(C(=O)C5(C)COC5)C4)n4ccnc(N)c34)cc2)c1` [Example 402, 4-(8-amino-3-{(3R,6S)-6-methyl-1-[(3-methyloxetan-3-yl)carbonyl]piperidin-3-yl}imidazo[1,5-a]pyrazin-1-yl)-N-(4-methylpyridin-2-yl)benzamide] is < 10 nM; for `C[C@@H]1C[C@@H](c2nc(-c3ccc(C(=O)Nc4cc(C(F)(F)F)ccn4)cc3)c3c(N)nccn23)CN(C(=O)C2(C)COC2)C1` [Example 375, 4-(8-amino-3-{(3R,5R)-5-methyl-1-[(3-methyloxetan-3-yl)carbonyl]piperidin-3-yl}imidazo[1,5-a]pyrazin-1-yl)-N-[4-(trifluoromethyl)pyridin-2-yl]benzamide] it is 10 to 100 nM.

The experiment is the same for the next values; noted with them: IMAP-FP, 1.05 nM hBTK, 5 μM ATP; read-out: IC50 Btk activity values - Assay Method B.
Regarding `CC1(C(=O)N2CCN[C@@H](c3nc(-c4ccc(C(=O)Nc5cc(C(F)(F)F)ccn5)cc4)c4c(N)nccn34)C2)CC1` [Example 567, 4-(8-amino-3-{(2R)-4-[(1-methylcyclopropyl)carbonyl]piperazin-2-yl}imidazo[1,5-a]pyrazin-1-yl)-N-[4-(trifluoromethyl)pyridin-2-yl]benzamide], the 50% inhibitory concentration (IC50) was ≥ 1000 nM.
